The data set in a line: gradient 5% acetonitrile 3 min, to 50% in 2 min, to 85% in 15 min, held 3 min, 100 µL/min. Particulars: column: Zorbax Extend-C18 2.1 x 50 mm; eluents: water / acetonitrile, 0.1% formic acid. The gist of the method: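 Using water and acetonitrile that each contained 0.1% formic acid, mixtures of ~100 pure standards were separated at 100 μL/min on a Zorbax Extend-C18 column (2.1 × 50 mm, 1.8 μm). The HPLC fed a quadrupole time-of-flight mass spectrometer working in positive and negative ionization mode, with dead and dwell volumes of 40 μL and 900 μL. Data were acquired over 3 months. Retention time was read from computationally picked adduct peaks after manual inspection of each.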
Compound `Cc1ccc(NC(=O)Cc2nnc(-c3cnccn3)o2)cc1Cl` yielded an RP-LC retention time of 756 s.

As to `Cn1c2c(c3ccccc31)C(C(=O)NCc1ccc(F)cc1)N(Cc1cccnc1)C(=O)CS2` (centres undefined), the RP-LC retention time was determined as 703 s.

Compound `CCNC(=O)c1cc(C)no1` registered an RP-LC retention time of 596 s.

In the case of `Cc1cc(-c2nnc(C3CCC3)o2)c(C)n1CC(=O)Nc1ccc(Br)cc1F`, the RP-LC retention time amounted to 982 s.

As for `Cc1cc(C2CCCN2C(=O)c2ccc(C)s2)no1` (centres undefined), the RP-LC retention time was 770 s.

`Cc1ccnc(N2CCCC(C(=O)NCCc3ccccc3Cl)C2)n1` (centres undefined) returned an RP-LC retention time of 779 s.

In the case of `O=C(CC1CCN(C(=O)Nc2ccccc2F)CC1)N1CCCCC1`, the RP-LC retention time came to 709 s.

Regarding `COc1ccc(OC)c2sc(NC(=O)c3cccc(N4C(=O)CCC4=O)c3)nc12`, the RP-LC retention time came out at 716 s.

Consider `COC(=O)c1sccc1S(=O)(=O)NCC1CCN(Cc2cc(C)oc2C)CC1`, for which the RP-LC retention time amounted to 579 s.

Compound `CCOc1ccc(C(C)C)cc1S(=O)(=O)Nc1cccnc1` yielded an RP-LC retention time of 722 s.

`CC(=O)Nc1ccc(C2(C(=O)NCc3ccc(F)cc3)CCC2)cc1` yielded an RP-LC retention time of 748 s.

In the case of `COc1ccc(C2CC(=O)N(c3cc(C)ccc3C)C(=O)C2)cc1OC`, the RP-LC retention time stood at 872 s.

With `Cn1c(C(=O)NCCCN2CCCCC2)cc2c(-c3cccs3)nn(-c3ccccc3)c21`, the RP-LC retention time was 746 s.

For the compound `CCc1nc2ccccc2n1CC(O)COc1ccc(C)c(C)c1` (centres undefined), the RP-LC retention time was 696 s.

For the compound `c1ccc(-c2nc3cc(-c4noc(-c5ccccn5)n4)ccc3o2)cc1`, the RP-LC retention time is 1120 s.

Compound `CCN(CC)C(=O)Cn1nc2c(SCc3ccc(Cl)cc3)nccn2c1=O` returned an RP-LC retention time of 930 s.

`Cc1ccc(C(=O)N2CCC(n3nc(-c4ccsc4)ccc3=O)CC2)cc1`: the RP-LC retention time turned out to be 835 s.

`Cc1nc(-c2noc(-c3ccccc3)n2)cn1CC(=O)NCc1cccs1` gave an RP-LC retention time of 789 s.

For `Cc1nn(C)c(C)c1CCN(C)c1ccc(C(=O)O)cc1NC(=O)c1ccc(Cl)cc1`, the RP-LC retention time turned out to be 780 s.

As to `CCCn1cc(CCNC(=O)Nc2ccc(OC)cc2)c2cccnc21`, the RP-LC retention time worked out at 713 s.

For `CC(C)CNC(=O)N1CCCC(c2nn[nH]n2)C1` (centres undefined), the RP-LC retention time was 617 s.

As for `CCCc1noc(-c2ccnc(-n3ncc(C(=O)NC(C)C)c3C)c2)n1`, the RP-LC retention time worked out at 868 s.

`Cc1noc(-c2ccc(NC(=O)c3cc(=O)c4ccccc4o3)cc2)n1` registered an RP-LC retention time of 790 s.

For the compound `CCOC(=O)N1CCN(c2cc(-c3nc(-c4cccc(F)c4)no3)c3ccccc3n2)CC1`, the RP-LC retention time worked out at 1420 s.

Turning to `Cc1cccc(CNC(=O)c2cn3cccc(C)c3n2)c1`, the RP-LC retention time was 675 s.

Compound `O=C(NCC1CCN(C(=O)Oc2ccccc2)CC1)C(=O)Nc1ccc2c(c1)OCCO2` registered an RP-LC retention time of 853 s.

As for `O=C(c1ccc(-c2cccnc2)nc1)N1CCN(c2ccc(Cl)cc2)CC1`, the RP-LC retention time came to 746 s.

Turning to `CC(C)C(NC(=O)c1ccco1)c1nc(-c2ccc3c(c2)ncn3C2CCCC2)no1` (centres undefined), the RP-LC retention time is 741 s.

Compound `Cn1c(=O)n(C)c2cc(S(=O)(=O)C3CCCCC3)c(NC(=O)c3ccccc3)cc21` returned an RP-LC retention time of 982 s.

`CN1CCN(S(=O)(=O)c2cc(-c3nnc(C4CCCC4)o3)co2)CC1`: the RP-LC retention time is 619 s.

`Cc1ccccc1-c1cc(N2CCN(C(=O)NCC3CCCO3)CC2)ncn1` (centres undefined): the RP-LC retention time was 600 s.

`CC(=O)Nc1cc2c(cc1Sc1ccc(C)cc1)n(C)c(=O)n2C` returned an RP-LC retention time of 785 s.

`Cc1ccc(S(=O)(=O)N(C)CC2CCOC2)cc1F` (centres undefined) displayed an RP-LC retention time of 849 s.

Take `CCc1ccccc1S(=O)(=O)N1CCc2nc[nH]c2C1`: the RP-LC retention time came to 612 s.

The values are drawn from the METLIN SMRT retention time set (Domingo-Almenara et al. 2019).
